According to patent publication US12194140B2, “Compositions for topical treatment of microbial infections” (Hennepin Life Sciences, priority 2012, dated 2025):

Key:
Mycobacterium phlei = test: Spectrum of antibacterial activity of GML; format: cell-based; conditions: optimal growth conditions; 1 strain tested
Candida albicans = test: GML in vegetable oil, growth in Todd Hewitt broth (CFU/mL); format: cell-based; conditions: GML in olive, palm or corn oil (all 3); 18 hours, 37° C.
Neisseria gonorrhoeae = test: Spectrum of antibacterial activity of GML; format: cell-based; conditions: optimal growth conditions; 1 strain tested
Klebsiella pneunoniae = test: Spectrum of antibacterial activity of GML; format: cell-based; conditions: optimal growth conditions; 1 strain tested
[1] = system: coagulase-negative staphylococci; test: Decolonization of anterior nares; format: in vivo, human; conditions: 5% w/v GML in non-aqueous gel
Pseudomonas aeruginosa = test: Spectrum of antibacterial activity of GML; format: cell-based; conditions: optimal growth conditions; 1 strain tested
H. influenzae biofilm = test: Treatment of previously formed biofilms; format: cell-based; conditions: 48 hour biofilm; 500 μg/mL GML for 60 minutes at 37° C.
Protocol: Supernatants were removed and bactericidal activity was determined by measuring CFU/mL (FIG. 9, left; # significant reduction in mean absorbance at 595 nm compared to no GML control, p<0.01). Wells were then washed and stained with crystal violet as described above.

Proteus vulgaris = test: Spectrum of antibacterial activity of GML; format: cell-based; conditions: optimal growth conditions; 1 strain tested
S. pyogenes = test: Bactericidal activity of GML versus lauric acid; format: cell-based; conditions: 24 hours, 37° C.
[2] = system: Bacillus anthracis Sterne; format: cell-based; conditions: optimal growth conditions; 1 strain tested
[3] = system: Bordetella bronchiseptica; test: Spectrum of antibacterial activity of GML; format: cell-based; conditions: optimal growth conditions; 1 strain tested
Fusobacterium species = test: Spectrum of antibacterial activity of GML; format: cell-based; conditions: optimal growth conditions; 1 strain tested
S. aureus (strain MN8) = test: Effect of non-aqueous gel on antimicrobial activity of GML; format: cell-based; conditions: GML alone in Todd Hewitt broth; 24 hours
Streptococcus agalactiae = test: Spectrum of antibacterial activity of GML; format: cell-based; conditions: optimal growth conditions; 3 strains tested
[4] = system: S. aureus strains MN8, MNWH, MW2; test: Biofilm formation in 96 well microtiter plates; format: cell-based
Group G Streptococcus = test: Spectrum of antibacterial activity of GML; format: cell-based; conditions: optimal growth conditions; 1 strain tested
Clostridium perfringens = format: cell-based; conditions: optimal growth conditions; 1 strain tested
Streptococcus pyogenes = test: Spectrum of antibacterial activity of GML; format: cell-based; conditions: optimal growth conditions; 4 strains tested
Streptococcus suis = test: Spectrum of antibacterial activity of GML; format: cell-based; conditions: optimal growth conditions; 1 strain tested
E. coli (Watson strain) = test: GML and EDTA on the growth of E. coli; format: cell-based; conditions: 24 hours; EDTA 0.05 M to 0.00005 M; GML 100 μg/mL
Protocol: E. coli (Watson strain) was adjusted to I.2×10^7/mL in Todd Hewitt media. […] Cultures were incubated with shaking (200 RPM) for 24 hours, at which time samples were removed for plate counting. To further assess the combined effects of GML and EDTA, the experiment was carried out as above, and the relative effects on the growth of E. coli of EDTA alone or the combination of GML and EDTA were assessed in direct comparison to GML alone.

S. aureus biofilm = test: Treatment of previously formed biofilms; format: cell-based; conditions: 48 hour biofilm; 500 μg/mL GML for 60 minutes at 37° C.
[5] = system: Prevotella melaninogenica; test: Spectrum of antibacterial activity of GML; format: cell-based; conditions: optimal growth conditions; 1 strain tested
Escherichia coli = test: Spectrum of antibacterial activity of GML; format: cell-based; conditions: optimal growth conditions; 2 strains tested
Burkholderia cenocepacia = test: Spectrum of antibacterial activity of GML; format: cell-based; conditions: optimal growth conditions; 1 strain tested
Staphylococcus aureus = test: Spectrum of antibacterial activity of GML; format: cell-based; conditions: optimal growth conditions; 54 strains tested
[6] = system: Peptostreptococcus species; test: Spectrum of antibacterial activity of GML; format: cell-based; conditions: optimal growth conditions; 1 strain tested
Bacteroides fragilis = test: Spectrum of antibacterial activity of GML; format: cell-based; conditions: optimal growth conditions; 2 strains tested
Shigella sonnei = format: cell-based
[7] = system: Haemophilus influenzae Non-typable; test: Spectrum of antibacterial activity of GML; format: cell-based; conditions: optimal growth conditions; 2 strains tested

Glycerol monolaurate [GML]
Average Bactericidal Concentration of GML (Mycobacterium phlei): 100 µg/mL
GML concentration at which growth was inhibited (Candida albicans): 100 µg/mL
Average Bactericidal Concentration of GML (Neisseria gonorrhoeae): 20 µg/mL
Average Bactericidal Concentration of GML (Klebsiella pneunoniae): Not Susceptible
coagulase-negative staphylococcal counts in both nares after treatment ([1]; swab, three subjects, 4 hours or more up to 24 hour): significantly (p<0.05) reduced
coagulase-negative staphylococci in right nare after 3 days ([1]; one subject, initially 560): 8 CFU/mL
coagulase-negative staphylococci in left nare after 3 days ([1]; one subject, initially 880): 0 CFU/mL
Average Bactericidal Concentration of GML (Pseudomonas aeruginosa): Not Susceptible
bactericidal activity on previously formed biofilm (CFU/mL) (H. influenzae biofilm): killed
biofilm material attached to the wells (crystal violet staining) (H. influenzae biofilm): nearly completely removed biofilm material
Average Bactericidal Concentration of GML (Proteus vulgaris): Not Susceptible
fold more bactericidal for S. pyogenes than for S. aureus (S. pyogenes): 5 fold
fold lower bactericidal concentration than lauric acid (S. pyogenes; 7% CO2, bactericidal = at least 3 log reduction): 500 fold
Average Bactericidal Concentration of GML [2]: 50 µg/mL
Average Bactericidal Concentration of GML [3]: 1 µg/mL
Average Bactericidal Concentration of GML (Fusobacterium species): 50 µg/mL
GML concentration inhibiting growth (CFU/mL) (S. aureus (strain MN8)): ≥ 100 µg/mL
Average Bactericidal Concentration of GML (Streptococcus agalactiae): 30 µg/mL
fold lower GML concentration inhibiting biofilm formation (crystal violet, absorbance 595 nm) than necessary to inhibit bacterial growth ([4]; 24 or 48 hours): 10 fold
GML concentration at which growth was completely inhibited (CFU/mL) ([4]; all three strains, 24 and 48 hours): 500 µg/mL
Average Bactericidal Concentration of GML (Group G Streptococcus): 50 µg/mL
Average Bactericidal Concentration of GML (Clostridium perfringens): 1 µg/mL
Average Bactericidal Concentration of GML (Streptococcus pyogenes): 30 µg/mL
Average Bactericidal Concentration of GML (Streptococcus suis): 50 µg/mL
anti-bacterial activity on growth of E. coli (CFU/mL) (E. coli (Watson strain)): did not exhibit any bactericidal activity
bactericidal activity on previously formed biofilm (CFU/mL) (S. aureus biofilm): killed
biofilm material attached to the wells (crystal violet staining) (S. aureus biofilm): nearly completely removed biofilm material
Average Bactericidal Concentration of GML [5]: 50 µg/mL
Average Bactericidal Concentration of GML (Escherichia coli): Not Susceptible
Average Bactericidal Concentration of GML (Burkholderia cenocepacia): 500 µg/mL
Average Bactericidal Concentration of GML (Staphylococcus aureus): 300 µg/mL
Average Bactericidal Concentration of GML [6]: 1 µg/mL
Average Bactericidal Concentration of GML (Bacteroides fragilis): 50 µg/mL
Average Bactericidal Concentration of GML (Shigella sonnei): Not Susceptible
Average Bactericidal Concentration of GML [7]: 50 µg/mL
